Test results taken from PubChem BioAssay (NCI).
Values joined by “and” are separate entries in the source; they are usually repeats but may differ in a detail not shown here. Identical values can stand only once.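 The compound was tested at five concentrations on cells cultured in 96-well plates, with a 48-hour exposure period. GI50 marks 50% less growth. TGI: total growth inhibition.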

Key:
Experiment in all cases: growth of human tumour cells (NCI), 48 h
BT-549 breast = tested on: BT-549 breast
CAKI-1 renal = tested on: CAKI-1 renal
COLO 205 colon = tested on: COLO 205 colon
M14 melanoma = tested on: M14 melanoma
UO-31 renal = tested on: UO-31 renal
NCI-H226 lung = tested on: NCI-H226 lung
HOP-62 NSCLC = tested on: HOP-62 NSCLC
SK-OV-3 ovarian = tested on: SK-OV-3 ovarian
NCI-H23 lung = tested on: NCI-H23 lung
HOP-92 NSCLC = tested on: HOP-92 NSCLC

## C=C1C(=O)O[C@@H]2C[C@@H]1CC[C@]1(C)O[C@H]1CC[C@@]1(C)O[C@@H]1CC[C@@]2(C)O
BT-549 breast
  GI50: 31.9 µM
  TGI: 89.5 µM
CAKI-1 renal
  GI50: 27.3 µM
  TGI: 79.9 µM
COLO 205 colon
  GI50: 16.4 µM
  TGI: 34.2 µM
M14 melanoma
  GI50: 34.2 µM
  TGI: > 100 µM
UO-31 renal
  GI50: 13.7 µM
  TGI: 45.1 µM
NCI-H226 lung
  GI50: 26.7 µM
  TGI: 86.2 µM
HOP-62 NSCLC
  GI50: 75.8 µM
  TGI: > 100 µM
SK-OV-3 ovarian
  GI50: > 100 µM
  TGI: > 100 µM

## CC(O)C1OC(O)C2OC(C)(C)OC12 (centres undefined)
NCI-H23 lung
  TGI: > 100 µM
BT-549 breast
  TGI: > 100 µM
CAKI-1 renal
  TGI: > 100 µM
COLO 205 colon
  TGI: > 100 µM
M14 melanoma
  TGI: > 100 µM
UO-31 renal
  TGI: > 100 µM
NCI-H226 lung
  TGI: > 100 µM
HOP-62 NSCLC
  TGI: > 100 µM
SK-OV-3 ovarian
  TGI: > 100 µM

## COc1ccc(-c2ccc(C3CC(c4ccc(O)cc4)=NN3)o2)c([N+](=O)[O-])c1 (centres undefined)
NCI-H23 lung
  GI50: 42.5 µM
  TGI: > 100 µM
BT-549 breast
  GI50: 32.8 µM
  TGI: > 100 µM
CAKI-1 renal
  GI50: 34.4 µM
  TGI: > 100 µM
COLO 205 colon
  GI50: 27.2 µM
  TGI: 82.7 µM
M14 melanoma
  GI50: 36.1 µM
  TGI: > 100 µM
UO-31 renal
  GI50: 50.3 µM
  TGI: > 100 µM
NCI-H226 lung
  GI50: 36.4 µM
  TGI: > 100 µM
HOP-62 NSCLC
  GI50: 34 µM
  TGI: > 100 µM
SK-OV-3 ovarian
  GI50: 19.8 µM
  TGI: > 100 µM

## CCC/C(=N\NC(=S)N1CCN(c2ccccn2)CC1)c1ccccn1
NCI-H23 lung
  TGI: > 10 µM and 2.43 µM
BT-549 breast
  TGI: 1.92 µM
CAKI-1 renal
  GI50: 0.0143 µM
  TGI: > 5.37 µM and 1.92 µM
M14 melanoma
  GI50: 0.122 µM
  TGI: 0.318 µM
UO-31 renal
  GI50: 0.0529 µM
  TGI: 3.42 µM and 1.44 µM
NCI-H226 lung
  GI50: 0.136 µM
  TGI: 3.67 µM and 1.75 µM
HOP-62 NSCLC
  GI50: 0.0603 µM
  TGI: 2.92 µM and 1.59 µM
SK-OV-3 ovarian
  GI50: 1.34 µM
  TGI: 2.15 µM and 2.68 µM

## CC1=CC=NN2C(=O)[C@H](C)C2C1 (some centres undefined)
NCI-H23 lung
  TGI: > 100 µM
COLO 205 colon
  TGI: > 100 µM
M14 melanoma
  TGI: > 100 µM
UO-31 renal
  TGI: > 100 µM
NCI-H226 lung
  TGI: > 100 µM
HOP-92 NSCLC
  TGI: > 100 µM
HOP-62 NSCLC
  TGI: > 100 µM
SK-OV-3 ovarian
  TGI: > 100 µM

## CC(C)(C)[Si](C)(C)OCC1CCC(n2cnc3c(NC(=O)c4ccccc4)ncnc32)O1 (centres undefined)
NCI-H23 lung
  TGI: 37.4 µM
CAKI-1 renal
  TGI: 46.9 µM
COLO 205 colon
  TGI: 35.6 µM
M14 melanoma
  TGI: 30.3 µM
UO-31 renal
  TGI: 3.16 µM
NCI-H226 lung
  TGI: 34.6 µM
HOP-92 NSCLC
  TGI: 31.6 µM
HOP-62 NSCLC
  TGI: 38 µM
SK-OV-3 ovarian
  TGI: 44.9 µM

## COc1ccc2[nH]cc(CCNC(C)=O)c2c1
NCI-H23 lung
  TGI: > 100 µM
CAKI-1 renal
  TGI: > 100 µM
COLO 205 colon
  TGI: 85.5 µM
M14 melanoma
  TGI: > 100 µM
UO-31 renal
  TGI: > 100 µM
HOP-92 NSCLC
  TGI: > 100 µM
HOP-62 NSCLC
  TGI: > 100 µM
SK-OV-3 ovarian
  TGI: > 100 µM

## O=C(Cc1nc2ccccc2s1)C(=O)Nc1ccc(Cl)cc1
NCI-H23 lung
  TGI: > 100 µM
CAKI-1 renal
  TGI: > 100 µM
COLO 205 colon
  TGI: > 100 µM
M14 melanoma
  TGI: > 100 µM
UO-31 renal
  TGI: > 100 µM
NCI-H226 lung
  TGI: > 100 µM
HOP-92 NSCLC
  TGI: > 100 µM
HOP-62 NSCLC
  TGI: > 100 µM
SK-OV-3 ovarian
  TGI: > 100 µM

## COc1cccc(N2C(=O)c3c(c4[nH]c5ccccc5c4c4ccc(C(C)(C)C)cc34)C2=O)c1
NCI-H23 lung
  TGI: > 100 µM
CAKI-1 renal
  TGI: > 100 µM
COLO 205 colon
  TGI: > 100 µM
M14 melanoma
  TGI: > 100 µM
UO-31 renal
  TGI: > 100 µM
NCI-H226 lung
  TGI: > 100 µM
HOP-92 NSCLC
  TGI: > 100 µM
HOP-62 NSCLC
  TGI: > 100 µM
SK-OV-3 ovarian
  TGI: > 100 µM

## COc1cc(Nc2cnc3cc(C(F)(F)F)ccc3n2)cc(OC)c1OC
NCI-H23 lung
  TGI: > 100 µM
COLO 205 colon
  TGI: > 100 µM
UO-31 renal
  TGI: > 100 µM
NCI-H226 lung
  TGI: > 100 µM
HOP-92 NSCLC
  TGI: > 100 µM
HOP-62 NSCLC
  TGI: > 100 µM
SK-OV-3 ovarian
  TGI: > 100 µM

## CCN(CC)CCCN(c1cc(OC)cc2nccnc12)S(=O)(=O)c1ccc(C)cc1
NCI-H23 lung
  TGI: > 100 µM
CAKI-1 renal
  TGI: > 100 µM
COLO 205 colon
  TGI: > 100 µM
M14 melanoma
  TGI: > 100 µM
UO-31 renal
  TGI: > 100 µM
NCI-H226 lung
  TGI: > 100 µM
HOP-92 NSCLC
  TGI: > 100 µM
HOP-62 NSCLC
  TGI: > 100 µM
SK-OV-3 ovarian
  TGI: > 100 µM

## COc1ccc(OCC(=O)O)c2c1CCC(C(C)C)C2=O (centres undefined)
NCI-H23 lung
  TGI: > 100 µM
CAKI-1 renal
  TGI: > 100 µM
COLO 205 colon
  TGI: > 100 µM
M14 melanoma
  TGI: > 100 µM
UO-31 renal
  TGI: > 100 µM
HOP-92 NSCLC
  TGI: > 100 µM
HOP-62 NSCLC
  TGI: > 100 µM
SK-OV-3 ovarian
  TGI: > 100 µM

## CC(=O)Nc1ccc(/C=C(\NC(=O)c2ccccc2)c2nc3ccc4c(c3[nH]2)C(=O)c2ccccc2C4=O)cc1
NCI-H23 lung
  TGI: > 100 µM
CAKI-1 renal
  TGI: > 100 µM
COLO 205 colon
  TGI: > 100 µM
M14 melanoma
  TGI: > 100 µM
UO-31 renal
  TGI: 9.17 µM
NCI-H226 lung
  TGI: > 100 µM
HOP-92 NSCLC
  TGI: > 100 µM
HOP-62 NSCLC
  TGI: > 100 µM
SK-OV-3 ovarian
  TGI: > 100 µM

## COc1nc2c(OC)cccc2c(OC)c1C=O
NCI-H23 lung
  TGI: > 100 µM
COLO 205 colon
  TGI: > 100 µM
M14 melanoma
  TGI: > 100 µM
UO-31 renal
  TGI: > 100 µM
NCI-H226 lung
  TGI: > 100 µM
HOP-62 NSCLC
  TGI: > 100 µM
SK-OV-3 ovarian
  TGI: > 100 µM

## O=C1NC(=O)C(C(=O)C(=O)Nc2ccc(Br)cc2)C(=O)N1
NCI-H23 lung
  TGI: > 100 µM
COLO 205 colon
  TGI: > 100 µM
M14 melanoma
  TGI: > 100 µM
UO-31 renal
  TGI: > 100 µM
NCI-H226 lung
  TGI: > 100 µM
HOP-92 NSCLC
  TGI: > 100 µM
SK-OV-3 ovarian
  TGI: > 100 µM

## CC(C)(C)NNC(=O)/C(=C/c1ccc(Oc2ccc(Cl)c(Cl)c2)cc1)NC(=O)c1ccccc1
NCI-H23 lung
  TGI: > 100 µM
CAKI-1 renal
  TGI: > 100 µM
COLO 205 colon
  TGI: 36.8 µM
M14 melanoma
  TGI: > 100 µM
UO-31 renal
  TGI: > 100 µM
NCI-H226 lung
  TGI: > 100 µM
HOP-92 NSCLC
  TGI: > 100 µM
HOP-62 NSCLC
  TGI: > 100 µM
SK-OV-3 ovarian
  TGI: > 100 µM

## O=S(=O)([O-])[O-].[OH3+].[OH3+].[OH3+].[Ru+2].c1ccccc1
NCI-H23 lung
  GI50: > 100 µM
  TGI: > 100 µM
COLO 205 colon
  GI50: > 100 µM
  TGI: > 100 µM
M14 melanoma
  GI50: > 100 µM
  TGI: > 100 µM
UO-31 renal
  GI50: > 100 µM
  TGI: > 100 µM
NCI-H226 lung
  GI50: > 100 µM
  TGI: > 100 µM
HOP-92 NSCLC
  GI50: > 100 µM
  TGI: > 100 µM
SK-OV-3 ovarian
  GI50: > 100 µM
  TGI: > 100 µM

## CN(N=O)C(=O)Nc1c[nH]c(=O)[nH]c1=O
NCI-H23 lung
  TGI: > 100 µM
CAKI-1 renal
  TGI: > 100 µM
COLO 205 colon
  TGI: > 100 µM
M14 melanoma
  TGI: > 100 µM
UO-31 renal
  TGI: > 100 µM
NCI-H226 lung
  TGI: > 100 µM
HOP-92 NSCLC
  TGI: > 100 µM
HOP-62 NSCLC
  TGI: > 100 µM
SK-OV-3 ovarian
  TGI: > 100 µM

## CSC(=S)c1ccc(C(=S)SC)cc1
NCI-H23 lung
  TGI: > 100 µM
CAKI-1 renal
  TGI: > 100 µM
COLO 205 colon
  TGI: > 100 µM
M14 melanoma
  TGI: > 100 µM
UO-31 renal
  TGI: > 100 µM
NCI-H226 lung
  TGI: > 100 µM
HOP-92 NSCLC
  TGI: > 100 µM
HOP-62 NSCLC
  TGI: > 100 µM
SK-OV-3 ovarian
  TGI: > 100 µM

## CCCc1c2c([nH]c(=O)c1C)C(=O)c1[nH]c(=O)c(C)c(CCC)c1C2=O
NCI-H23 lung
  TGI: 57.4 µM
COLO 205 colon
  TGI: 55.1 µM
M14 melanoma
  TGI: 17.3 µM
UO-31 renal
  TGI: > 100 µM
NCI-H226 lung
  TGI: > 100 µM
HOP-92 NSCLC
  TGI: 93.8 µM
HOP-62 NSCLC
  TGI: > 100 µM

## CCOC(=N)CC(=O)Nc1ccc(Cl)cc1
NCI-H23 lung
  TGI: > 100 µM
CAKI-1 renal
  TGI: > 100 µM
COLO 205 colon
  TGI: > 100 µM
M14 melanoma
  TGI: > 100 µM
UO-31 renal
  TGI: > 100 µM
NCI-H226 lung
  TGI: > 100 µM
HOP-62 NSCLC
  TGI: > 100 µM
SK-OV-3 ovarian
  TGI: > 100 µM

## CN(C)c1ccc(-c2cc(=O)c3ccccc3[nH]2)cc1
NCI-H23 lung
  TGI: > 100 µM
COLO 205 colon
  TGI: > 100 µM
M14 melanoma
  TGI: > 100 µM
UO-31 renal
  TGI: > 100 µM
NCI-H226 lung
  TGI: > 100 µM
HOP-62 NSCLC
  TGI: > 100 µM
